PubChem BioAssay AID330 (DTP/NCI, 2004)
Several values for one entry are separate records, joined by “and”; a condition that tells them apart may be missing. Equal values may be shown once. Toxic doses and inconclusive results are not listed. The calls were made as follows: active = survival T/C of 150% or more; inactive = T/C below 125% in these data. Square brackets hold non-standard residues; d marks the D form. Peptide text beside a SMILES is read from it. * marks the point of attachment. Cbz = O=C(OCc1ccccc1)*; Nva = CCC[CH](N)C(=O)O

Tested on: P388 leukemia ip, CD2F1 mice, survival T/C
Experiment: NCI In Vivo Anticancer Drug Screen. Data for tumor model P388 Leukemia (intraperitoneal) in CD2F1 (CDF1) mice
Conditions: endpoint: median survival time, higher = longer survival
Procedure, shortened: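 Mice carrying the transplanted tumor received test compound or vehicle. Survival was recorded in each group, and the value is the treated-group measurement divided by that of the vehicle-treated control group.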

[1] = dose: 50.0 mg/kg/injection, schedule: Q01DX005 (ip), vehicle: Klucel (hydroxypropylcellulose) (HPC)
[2] = dose: 100.0 mg/kg/injection, schedule: Q01DX005 (ip), vehicle: Klucel (hydroxypropylcellulose) (HPC)
[3] = dose: 50.0 mg/kg/injection, schedule: Q01DX009 (ip), vehicle: saline with Tween-80
[4] = dose: 100.0 mg/kg/injection, schedule: Q01DX009 (ip), vehicle: saline with Tween-80
[5] = dose: 200.0 mg/kg/injection, schedule: Q01DX009 (ip), vehicle: saline with Tween-80
[6] = dose: 60.0 mg/kg/injection, schedule: Q01DX005 (ip), vehicle: saline with Tween-80
[7] = dose: 120.0 mg/kg/injection, schedule: Q01DX005 (ip), vehicle: saline with Tween-80
[8] = dose: 240.0 mg/kg/injection, schedule: Q01DX005 (ip), vehicle: saline with Tween-80
[9] = dose: 50.0 mg/kg/injection, schedule: Q01DX005 (ip), vehicle: saline with Tween-80
[10] = dose: 100.0 mg/kg/injection, schedule: Q01DX005 (ip), vehicle: saline with Tween-80
[11] = dose: 200.0 mg/kg/injection, schedule: Q01DX005 (ip), vehicle: saline with Tween-80
[12] = dose: 25.0 mg/kg/injection, schedule: Q01DX009 (ip), vehicle: Klucel (hydroxypropylcellulose) (HPC)
[13] = dose: 50.0 mg/kg/injection, schedule: Q01DX009 (ip), vehicle: Klucel (hydroxypropylcellulose) (HPC)
[14] = dose: 100.0 mg/kg/injection, schedule: Q01DX009 (ip), vehicle: Klucel (hydroxypropylcellulose) (HPC)
[15] = dose: 200.0 mg/kg/injection, schedule: Q01DX009 (ip), vehicle: Klucel (hydroxypropylcellulose) (HPC)

Measured: T/C

O=C(O)c1ccc([N+](=O)[O-])cc1O.O=C(O)c1ccc([N+](=O)[O-])cc1O.[Cu]
inactive: dose: 6.25 mg/kg/injection, schedule: Q01DX001 (ip), vehicle: saline with Tween-80 100 % of control | dose: 12.5 mg/kg/injection, schedule: Q01DX001 (ip), vehicle: saline with Tween-80 103 % of control | dose: 25.0 mg/kg/injection, schedule: Q01DX001 (ip), vehicle: saline with Tween-80 97 % of control

CC(C)(C)SCC(NC(=O)OCC1c2ccccc2-c2ccccc21)C(=O)O (configuration not stated)
inactive: [1] 100 % of control | [2] 100 % of control

O=C1C(C(=Nc2cccc(Cl)c2)c2ccccc2)=C(O)c2ccccc21
inactive: dose: 25.0 mg/kg/injection, schedule: Q04DX002 (ip), vehicle: saline with Tween-80 93 % of control | dose: 50.0 mg/kg/injection, schedule: Q04DX002 (ip), vehicle: saline with Tween-80 95 % of control

COC(C)C(Cl)C(=O)NN=C(c1ccccc1)c1ccccc1 (configuration not stated)
inactive: [3] 108 % of control | [4] 105 % of control | [5] 99 % of control

COC(=O)C1(CC(=O)C=C(C)C)NC(=S)NC(=O)C1C#N (configuration not stated)
inactive: dose: 60.0 mg/kg/injection, schedule: Q01DX005 (ip), vehicle: saline 98 % of control | dose: 120.0 mg/kg/injection, schedule: Q01DX005 (ip), vehicle: saline 103 % of control | dose: 240.0 mg/kg/injection, schedule: Q01DX005 (ip), vehicle: saline 98 % of control

CCOC(=O)c1c(=O)[nH]c(=O)n2c1[nH]c1ccccc12
inactive: [6] 93 % of control | [7] 91 % of control | [8] 90 % of control

CC(Cc1ccc2c(c1)OCO2)NN (configuration not stated)
inactive: dose: 3.12 mg/kg/injection, schedule: Q01DX005 (ip), vehicle: saline 102 % of control | dose: 6.25 mg/kg/injection, schedule: Q01DX005 (ip), vehicle: saline 96 % of control | dose: 12.5 mg/kg/injection, schedule: Q01DX005 (ip), vehicle: saline 98 % of control

N=Cc1cc([N+](=O)[O-])ccc1O
inactive: [6] 105 % of control | [7] 104 % of control

CCC1C=Cc2ccccc2NC1 (configuration not stated)
inactive: [9] 100 % of control | [10] 94 % of control | [11] 98 % of control

COc1cccc(/C=C/S(=O)(=O)Cc2ccccc2)c1OC
inactive: [9] 93 % of control | [10] 100 % of control | [11] 91 % of control

CCCC(NC(=O)OCc1ccccc1)C(=O)NC(CC(C)C)C(N)=O (configuration not stated) (Cbz-[Nva]-Leu-NH2; configuration not given here)
inactive: [1] 112 % of control | [2] 100 % of control | dose: 200.0 mg/kg/injection, schedule: Q01DX005 (ip), vehicle: Klucel (hydroxypropylcellulose) (HPC) 100 % of control

CC(=O)Nc1nc(=O)c2c(n1C(C)=O)N(C(C)=O)C(=O)C2
inactive: dose: 100.0 mg/kg/injection, schedule: Q04DX002 (ip), vehicle: saline with Tween-80 103 % of control | dose: 200.0 mg/kg/injection, schedule: Q04DX002 (ip), vehicle: saline with Tween-80 103 % of control | dose: 400.0 mg/kg/injection, schedule: Q04DX002 (ip), vehicle: saline with Tween-80 100 % of control

Cc1ccc(C)c(C2NC(=O)c3ccccc3N2)c1 (configuration not stated)
inactive: dose: 25.0 mg/kg/injection, schedule: Q01DX009 (ip), vehicle: saline with Tween-80 104 % of control | [3] 104 % of control | [4] 101 % of control | [5] 112 % of control

Cc1ccc2c(ccc(CC(=S)[S-])[n+]2C)c1
inactive: [12] 114 % of control | [13] 120 % of control

C=C(C)C1CC2=C(C(=O)OC)C=C(O2)C(C(=C)C)C2OC(=O)/C(=C\C1O)C2OC (configuration not stated)
inactive: dose: 11.88 mg/kg/injection, schedule: Q01DX005 (ip), vehicle: saline + alcohol 99 % of control | dose: 23.75 mg/kg/injection, schedule: Q01DX005 (ip), vehicle: saline + alcohol 96 % of control | dose: 47.5 mg/kg/injection, schedule: Q01DX005 (ip), vehicle: saline + alcohol 101 % of control | dose: 95.0 mg/kg/injection, schedule: Q01DX005 (ip), vehicle: saline + alcohol 108 % of control | dose: 190.0 mg/kg/injection, schedule: Q01DX005 (ip), vehicle: saline + alcohol 99 % of control

Cc1ccc(N2CC(=O)N3CCCC(C)N3C(=O)C2)cc1 (configuration not stated)
inactive: [9] 99 % of control | [10] 99 % of control | [11] 99 % of control

CCC(c1ccc(O)cc1)c1cc2c(cc1OCC(=O)O)OCO2 (configuration not stated)
inactive: [9] 102 % of control | [10] 93 % of control | [11] 99 % of control

[Br][Ga]([Br])[Br]
inactive: dose: 25.0 mg/kg/injection, schedule: Q01DX009 (ip), vehicle: saline 115 % of control | dose: 50.0 mg/kg/injection, schedule: Q01DX009 (ip), vehicle: saline 100 % of control | dose: 100.0 mg/kg/injection, schedule: Q04DX003 (ip), vehicle: saline sonified 100 % of control

CN1CCC(/C=C/c2ccc(Cl)c(Cl)c2)CN1 (configuration not stated) (tested in a mixture with another compound)
inactive: dose: 25.0 mg/kg/injection, schedule: Q01DX001 (ip), vehicle: saline 100 % of control and 95 % of control | dose: 50.0 mg/kg/injection, schedule: Q01DX001 (ip), vehicle: saline 100 % of control | dose: 100.0 mg/kg/injection, schedule: Q01DX001 (ip), vehicle: saline 104 % of control and 93 % of control | dose: 100.0 mg/kg/injection, schedule: Q01DX001 (ip), vehicle: suspension in saline 116 % of control

C/C(=C\c1ccccc1)C1C(C#N)C(=O)NC(=O)C1C#N (configuration not stated)
inactive: [13] 101 % of control | [14] 105 % of control | [15] 106 % of control

OC1CCC(C2C3CCCCC3C3CCCCC3C2C2CCC(O)CC2)CC1 (configuration not stated)
inactive: [9] 99 % of control | [10] 99 % of control

Cc1ccc(S(=O)(=O)NCCC(=O)Nc2ccccc2)cc1
inactive: dose: 25.0 mg/kg/injection, schedule: Q01DX009 (ip), vehicle: other 102 % of control | dose: 50.0 mg/kg/injection, schedule: Q01DX009 (ip), vehicle: other 103 % of control | dose: 100.0 mg/kg/injection, schedule: Q01DX009 (ip), vehicle: other 103 % of control | dose: 200.0 mg/kg/injection, schedule: Q01DX009 (ip), vehicle: other 102 % of control | dose: 400.0 mg/kg/injection, schedule: Q01DX009 (ip), vehicle: other 96 % of control

O=c1[nH]nc(Sc2ccccc2)c2nncn12
inactive: [9] 100 % of control | [10] 92 % of control

S=c1[nH]c2ccccc2c2ccccc12
inactive: [12] 100 % of control | [13] 100 % of control | [14] 88 % of control | [15] 92 % of control

Cc1nc2sc3c(c2c(=N)n1N)CCCC3
inactive: dose: 12.5 mg/kg/injection, schedule: Q01DX001 (ip), vehicle: Klucel (hydroxypropylcellulose) (HPC) 103 % of control | dose: 25.0 mg/kg/injection, schedule: Q01DX001 (ip), vehicle: Klucel (hydroxypropylcellulose) (HPC) 97 % of control

COc1cc(C(Nc2ccccn2)c2cc3c(cc2OC(C)=O)OCO3)cc(OC)c1OC (configuration not stated)
inactive: [6] 104 % of control | [7] 97 % of control | [8] 88 % of control

CN(C)c1cccc2c(S(=O)(=O)NCCCCCCCCCCCCNS(=O)(=O)c3cccc4c(N(C)C)cccc34)cccc12
inactive: dose: 15.0 mg/kg/injection, schedule: Q01DX005 (ip), vehicle: saline with Tween-80 96 % of control | dose: 30.0 mg/kg/injection, schedule: Q01DX005 (ip), vehicle: saline with Tween-80 92 % of control | [6] 87 % of control | [8] 88 % of control
